Results from ChEMBL document CHEMBL1136561, “Thiophene-based vitronectin receptor antagonists” (Bioorg Med Chem Lett, 2003).

Columns and labels:
[1] = target: Integrin alpha-IIb/beta-3 (Homo sapiens, UniProt P05106+P08514); experiment: Inhibition of fibrinogen binding to integrin alphaIIb-beta3; format: protein-complex assay
Integrin alpha-V/beta-3 [2] = target: T1, Integrin alpha-V/beta-3 (Homo sapiens, UniProt P05106+P06756); experiment: Inhibition of fibrinogen binding to integrin alphaV-beta3 receptor; format: protein-complex assay
Integrin alpha-V/beta-3 [3] = target: T1, Integrin alpha-V/beta-3; experiment: Inhibition of fibrinogen binding to K562 cells expressing integrin alphaV-beta3; format: cell-based
[4] = target: Integrin alpha-V/beta-3 and alpha-IIb/beta 3 (Homo sapiens) (UniProt P05106+P06756+P08514); experiment: Selectivity ratio for alphaIIb-beta3 over alphaV-beta3 integrins; format: protein assay
Gallus gallus [5] = organism: Gallus gallus; experiment: Inhibition of VEGF-mediated angiogenesis in the chick CAM assay expressed as capillary formation at 17 ug/mesh conc.; format: functional
Gallus gallus [6] = organism: Gallus gallus; experiment: Inhibition of VEGF-mediated angiogenesis in the chick CAM assay expressed as capillary formation at 33 ug/mesh conc.; format: functional
Gallus gallus [7] = organism: Gallus gallus; experiment: Inhibition of VEGF-mediated angiogenesis in the chick CAM assay expressed as capillary formation at 3 ug/mesh conc.; format: functional
[8] = target: Fibronectin receptor (Integrin alpha-5/beta-1 and alpha-V/beta-3) (Homo sapiens) (UniProt P05106+P05556+P06756+P08648); experiment: Selectivity ratio for alpha5-beta1 and alphaV-beta3 integrins; format: protein-complex assay
Homo sapiens = organism: Homo sapiens; experiment: Selectivity ratio for alphaV-beta5 over alphaV-beta3 integrins
Integrin alpha-V/beta-5 = Integrin alpha-V/beta-5 (Homo sapiens, UniProt P06756+P18084); experiment: Inhibition of vitronectin binding to HT-29 cells expressing integrin alphaV-beta5; format: cell-based
Integrin alpha-5/beta-1 = Integrin alpha-5/beta-1 (Homo sapiens, UniProt P05556+P08648); experiment: Inhibition of fibronectin binding to K562 cells expressing integrin alpha5-beta1

Fibronectin receptor (Integrin alpha-5/beta-1 and alpha-V/beta-3) (Homo sapiens), sequence (P05106 whole entry, looked up): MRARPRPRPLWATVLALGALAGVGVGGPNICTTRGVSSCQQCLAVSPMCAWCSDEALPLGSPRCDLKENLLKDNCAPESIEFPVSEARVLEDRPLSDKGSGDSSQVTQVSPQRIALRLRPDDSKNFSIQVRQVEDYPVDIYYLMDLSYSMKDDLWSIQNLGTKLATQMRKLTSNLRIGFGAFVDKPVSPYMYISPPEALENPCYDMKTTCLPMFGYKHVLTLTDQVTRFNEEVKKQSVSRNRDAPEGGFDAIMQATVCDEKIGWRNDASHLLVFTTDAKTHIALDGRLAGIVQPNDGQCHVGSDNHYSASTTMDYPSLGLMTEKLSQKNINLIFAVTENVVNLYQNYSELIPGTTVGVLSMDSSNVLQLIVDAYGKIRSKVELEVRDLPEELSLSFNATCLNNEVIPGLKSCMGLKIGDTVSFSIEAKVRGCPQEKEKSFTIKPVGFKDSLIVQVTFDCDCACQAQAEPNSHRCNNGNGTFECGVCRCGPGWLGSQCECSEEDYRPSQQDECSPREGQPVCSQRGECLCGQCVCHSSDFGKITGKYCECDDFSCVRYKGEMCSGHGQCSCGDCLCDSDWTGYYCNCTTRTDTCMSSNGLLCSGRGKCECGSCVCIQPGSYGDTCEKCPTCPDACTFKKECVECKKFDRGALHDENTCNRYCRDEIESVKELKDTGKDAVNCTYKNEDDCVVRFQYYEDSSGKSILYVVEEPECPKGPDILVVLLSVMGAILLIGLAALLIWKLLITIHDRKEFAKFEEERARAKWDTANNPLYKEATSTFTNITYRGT
Fibronectin receptor (Integrin alpha-5/beta-1 and alpha-V/beta-3) (Homo sapiens), sequence (P05556 whole entry, looked up): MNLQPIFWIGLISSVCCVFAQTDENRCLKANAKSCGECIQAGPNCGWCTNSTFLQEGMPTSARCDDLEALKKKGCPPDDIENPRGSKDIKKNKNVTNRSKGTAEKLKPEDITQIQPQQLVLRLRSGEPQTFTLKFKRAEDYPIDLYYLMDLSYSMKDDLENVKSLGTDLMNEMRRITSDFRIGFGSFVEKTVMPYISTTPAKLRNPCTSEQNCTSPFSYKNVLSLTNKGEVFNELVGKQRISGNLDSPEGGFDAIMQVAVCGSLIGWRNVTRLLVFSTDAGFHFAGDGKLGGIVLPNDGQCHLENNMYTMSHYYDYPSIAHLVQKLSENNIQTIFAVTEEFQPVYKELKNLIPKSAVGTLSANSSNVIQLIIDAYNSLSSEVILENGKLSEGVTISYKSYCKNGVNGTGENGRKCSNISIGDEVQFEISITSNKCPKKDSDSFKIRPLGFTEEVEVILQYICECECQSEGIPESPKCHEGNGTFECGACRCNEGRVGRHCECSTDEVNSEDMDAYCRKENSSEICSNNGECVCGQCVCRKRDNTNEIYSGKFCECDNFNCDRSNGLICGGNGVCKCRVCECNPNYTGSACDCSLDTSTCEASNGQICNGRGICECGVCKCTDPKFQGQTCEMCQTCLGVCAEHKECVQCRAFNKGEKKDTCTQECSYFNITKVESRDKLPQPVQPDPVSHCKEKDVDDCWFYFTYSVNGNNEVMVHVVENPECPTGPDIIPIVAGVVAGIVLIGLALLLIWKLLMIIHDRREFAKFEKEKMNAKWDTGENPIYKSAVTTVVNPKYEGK
Fibronectin receptor (Integrin alpha-5/beta-1 and alpha-V/beta-3) (Homo sapiens), sequence (P06756 whole entry, looked up): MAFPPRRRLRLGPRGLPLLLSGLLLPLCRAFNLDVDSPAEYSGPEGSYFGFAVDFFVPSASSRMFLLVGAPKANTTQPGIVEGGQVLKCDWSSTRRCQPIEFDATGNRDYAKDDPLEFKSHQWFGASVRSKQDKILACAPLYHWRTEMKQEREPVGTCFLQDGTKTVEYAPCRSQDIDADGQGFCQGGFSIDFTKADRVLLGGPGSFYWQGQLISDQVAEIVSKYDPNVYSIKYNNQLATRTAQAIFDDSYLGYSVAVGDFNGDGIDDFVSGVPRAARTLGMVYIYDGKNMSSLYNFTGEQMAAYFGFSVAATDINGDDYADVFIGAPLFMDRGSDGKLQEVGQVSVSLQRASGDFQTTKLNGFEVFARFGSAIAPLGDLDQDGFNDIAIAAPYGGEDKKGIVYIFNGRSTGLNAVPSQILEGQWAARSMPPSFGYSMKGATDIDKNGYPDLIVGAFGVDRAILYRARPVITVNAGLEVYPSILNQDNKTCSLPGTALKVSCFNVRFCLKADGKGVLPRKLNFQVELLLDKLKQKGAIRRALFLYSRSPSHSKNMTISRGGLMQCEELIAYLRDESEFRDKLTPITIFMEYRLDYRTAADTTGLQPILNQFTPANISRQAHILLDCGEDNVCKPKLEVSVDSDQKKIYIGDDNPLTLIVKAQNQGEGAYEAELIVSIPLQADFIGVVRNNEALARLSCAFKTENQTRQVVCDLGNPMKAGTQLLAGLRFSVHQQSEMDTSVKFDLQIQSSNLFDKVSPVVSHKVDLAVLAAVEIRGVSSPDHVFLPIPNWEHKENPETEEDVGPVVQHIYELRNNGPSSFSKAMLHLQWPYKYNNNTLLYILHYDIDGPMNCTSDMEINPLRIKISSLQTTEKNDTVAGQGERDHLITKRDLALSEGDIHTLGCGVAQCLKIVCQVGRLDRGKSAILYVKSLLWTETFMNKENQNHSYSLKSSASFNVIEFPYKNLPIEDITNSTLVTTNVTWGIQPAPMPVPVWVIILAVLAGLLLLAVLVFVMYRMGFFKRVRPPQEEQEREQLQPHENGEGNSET
Fibronectin receptor (Integrin alpha-5/beta-1 and alpha-V/beta-3) (Homo sapiens), sequence (P08648 whole entry, looked up): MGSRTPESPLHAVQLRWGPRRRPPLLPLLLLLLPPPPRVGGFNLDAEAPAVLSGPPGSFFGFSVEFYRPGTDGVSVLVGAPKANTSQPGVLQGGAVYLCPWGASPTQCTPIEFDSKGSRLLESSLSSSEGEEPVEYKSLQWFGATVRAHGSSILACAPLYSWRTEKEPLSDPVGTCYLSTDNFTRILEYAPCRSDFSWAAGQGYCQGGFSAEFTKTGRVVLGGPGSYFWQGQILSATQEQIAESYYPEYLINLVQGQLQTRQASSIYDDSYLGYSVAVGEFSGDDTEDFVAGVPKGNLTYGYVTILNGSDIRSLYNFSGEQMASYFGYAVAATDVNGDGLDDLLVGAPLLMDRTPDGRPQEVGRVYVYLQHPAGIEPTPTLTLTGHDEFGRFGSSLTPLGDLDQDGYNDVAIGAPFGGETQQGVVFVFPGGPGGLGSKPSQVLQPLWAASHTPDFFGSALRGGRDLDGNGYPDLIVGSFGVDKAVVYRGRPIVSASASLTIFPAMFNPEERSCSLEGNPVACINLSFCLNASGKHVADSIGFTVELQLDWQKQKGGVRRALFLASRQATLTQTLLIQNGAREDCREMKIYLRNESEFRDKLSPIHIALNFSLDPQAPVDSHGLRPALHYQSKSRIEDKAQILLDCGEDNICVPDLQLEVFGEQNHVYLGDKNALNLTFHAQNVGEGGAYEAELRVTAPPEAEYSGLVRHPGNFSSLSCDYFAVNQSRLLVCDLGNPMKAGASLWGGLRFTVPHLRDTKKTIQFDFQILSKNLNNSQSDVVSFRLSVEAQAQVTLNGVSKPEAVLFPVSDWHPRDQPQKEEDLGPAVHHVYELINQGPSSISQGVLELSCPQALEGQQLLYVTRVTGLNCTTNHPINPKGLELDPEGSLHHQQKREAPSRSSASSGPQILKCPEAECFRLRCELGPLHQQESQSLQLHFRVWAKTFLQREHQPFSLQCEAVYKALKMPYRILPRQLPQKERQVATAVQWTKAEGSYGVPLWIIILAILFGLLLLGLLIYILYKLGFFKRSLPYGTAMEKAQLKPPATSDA

IC50 [1] [nM] | IC50 (Integrin alpha-V/beta-3 [2]) [nM] | IC50 (Integrin alpha-V/beta-3 [3]) [nM] | Ratio [4] | Ratio [8] | Ratio (Homo sapiens) | IC50 (Integrin alpha-V/beta-5) [nM] | IC50 (Integrin alpha-5/beta-1) [nM] | SMILES | Inhibition (Gallus gallus [5]) [%] | Inhibition (Gallus gallus [6]) [%] | Inhibition (Gallus gallus [7]) [%]
0.0013 | 71.5 | 3790 | < 0.1 | – | – | – | – | N=C(N)Nc1ccc(-c2ccc(C(=O)NC[C@H](NS(=O)(=O)c3ccccc3)C(=O)O)s2)cc1 | – | – | –
0.25 | 5500 | 5330 | < 0.1 | – | – | – | – | N=C(N)Nc1ccccc1-c1ccc(C(=O)NC[C@H](NS(=O)(=O)c2ccccc2)C(=O)O)s1 | – | – | –
0.0058 | 0.04 | 21 | < 0.1 | – | – | – | – | N=C(N)NCc1ccccc1-c1ccc(C(=O)NC[C@H](NS(=O)(=O)c2ccccc2)C(=O)O)s1 | – | – | –
0.16 | 3.4 | 11 | < 0.1 | 6 | 1 | – | – | Cc1cc(C)c(S(=O)(=O)N[C@@H](CNC(=O)c2ccc(-c3cccc(CN=C(N)N)c3)s2)C(=O)O)c(C)c1.O=C(O)C(F)(F)F | 91 | 95 | 65
0.31 | 1.4 | 0.00092 | 300 | 28300 | 2720 | 2.5 | 26 | Cc1cc(C)c(S(=O)(=O)N[C@@H](CNC(=O)c2ccc(-c3cccc(NC(=N)N)c3)s2)C(=O)O)c(C)c1 | – | – | –
6.1 | 2.1 | 730 | < 0.1 | – | – | – | – | N=C(N)NCc1ccc(-c2ccc(C(=O)NC[C@H](NS(=O)(=O)c3ccccc3)C(=O)O)s2)cc1 | – | – | –
0.59 | 1 | 0.19 | 3 | 500 | 33 | – | 95 | N=C(N)Nc1cccc(-c2ccc(C(=O)NC[C@H](NS(=O)(=O)c3ccccc3)C(=O)O)s2)c1.O=C(O)C(F)(F)F | 66 | 98 | 29
0.34 | 2.2 | 0.74 | < 0.5 | 864 | 97 | – | – | N=C(N)NCc1cccc(-c2ccc(C(=O)NC[C@H](NS(=O)(=O)c3ccccc3)C(=O)O)s2)c1.O=C(O)C(F)(F)F | 42 | 57 | 29
